Results reported in patent publication US8383384B2, “Polypeptide having glycosylation activity on a flavonoid” (Suntory Holdings Limited, priority 2007, dated 2013).

Assays:
TRa2 = assay: Glycosyl donor selectivity of TRa2; format: biochemical, Trichoderma viride; details: under the conditions shown in the Example section
From the text: Moreover, this enzyme is a glycosyltransferase capable of producing not only sugars composed of one or two glucose molecules, but also glycosides whose sugar chain length is three (G3) or more glucose molecules.

[1] = Solubility in water (HPLC quantification of supernatant); format: physicochemical; details: added to water at 10 to 450 mg/ml, vigorous stirring, centrifugation
[2] = Heat stability of glycoside (% remaining, HPLC); format: physicochemical; details: 100 μM in 10 mM potassium phosphate buffer pH 7.0, 4° C. to 100° C., 0 to 4 hours
Procedure: After 10 mM potassium phosphate buffer (pH 7.0, 30 μl) containing 100 μM (+)-catechin or 4′-O-α-D-glucopyranosyl-(+)-catechin was treated at different temperatures ranging from 4° C. to 100° C. for 0 to 4 hours, each sample was transferred on ice and mixed with 0.1% TFA (60 μl), followed by HPLC analysis in the same manner as shown in Example 1.

Row | Structure (SMILES) | use as glycosyl donor by TRa2 (TRa2) | also measured
1 | OC[C@H]1O[C@@H]2O[C@H]3[C@H](O)[C@@H](O)[C@@H](O[C@H]4[C@H](O)[C@@H](O)[C@@H](O[C@H]5[C@H](O)[C@@H](O)[C@@H](O[C@H]6[C@H](O)[C@@H](O)[C@@H](O[C@H]7[C@H](O)[C@@H](O)[C@@H](O[C@H]8[C@H](O)[C@@H](O)[C@@H](O[C@H]1[C@H](O)[C@H]2O)O[C@@H]8CO)O[C@@H]7CO)O[C@@H]6CO)O[C@@H]5CO)O[C@@H]4CO)O[C@@H]3CO [β-cyclodextrin] | does not target | –
2 | OC[C@H]1O[C@@H]2O[C@H]3[C@H](O)[C@@H](O)[C@@H](O[C@H]4[C@H](O)[C@@H](O)[C@@H](O[C@H]5[C@H](O)[C@@H](O)[C@@H](O[C@H]6[C@H](O)[C@@H](O)[C@@H](O[C@H]7[C@H](O)[C@@H](O)[C@@H](O[C@H]1[C@H](O)[C@H]2O)O[C@@H]7CO)O[C@@H]6CO)O[C@@H]5CO)O[C@@H]4CO)O[C@@H]3CO [α-cyclodextrin] | does not target | –
3 | OC[C@H]1O[C@H](Oc2cc(O)cc3c2C[C@H](O)[C@@H](c2ccc(O)c(O)c2)O3)[C@H](O)[C@@H](O)[C@@H]1O [5-O-α-D-glucopyranosyl-(+)-catechin] | – | solubility in water relative to (+)-catechin [1]: at least 40 fold
4 | OC[C@H]1O[C@H](O[C@H]2[C@H](O)[C@@H](O)C(O)O[C@@H]2CO)[C@H](O)[C@@H](O)[C@@H]1O (mixture of isomers) [maltose] | does not target | –
5 | Oc1cc(O)c2c(c1)O[C@H](c1ccc(O)c(O)c1)[C@@H](O)C2 [(+)-catechin] | – | solubility in water [1]: substantially insoluble in water
6 | O=C[C@H](O)[C@@H](O)[C@H](O[C@@H]1O[C@H](CO)[C@@H](O)[C@H](O)[C@H]1O)[C@H](O)CO [cellobiose] | does not target | –
7 | OC[C@H]1O[C@H](Oc2ccc([C@H]3Oc4cc(O)cc(O)c4C[C@@H]3O)cc2O)[C@H](O)[C@@H](O)[C@@H]1O [4′-O-α-D-glucopyranosyl-(+)-catechin] | – | heat stability (% remaining) compared with catechin [2]: more stable against heat than catechin
